Consider 11 compounds from patent publication US8258135B2, “Quinolizidinone M1 receptor positive allosteric modulators” (Merck Sharp & Dohme Corp., priority 2007, dated 2012).

For the assay, the target named is T1, acetylcholine muscarinic M1 receptor (Homo sapiens, UniProt P11229).
T1 construct: expressed in transfected cells; host or cells: CHOnfat (CHO cells, NFAT reporter background) expressing hM1
T1 sequence (P11229 1-460): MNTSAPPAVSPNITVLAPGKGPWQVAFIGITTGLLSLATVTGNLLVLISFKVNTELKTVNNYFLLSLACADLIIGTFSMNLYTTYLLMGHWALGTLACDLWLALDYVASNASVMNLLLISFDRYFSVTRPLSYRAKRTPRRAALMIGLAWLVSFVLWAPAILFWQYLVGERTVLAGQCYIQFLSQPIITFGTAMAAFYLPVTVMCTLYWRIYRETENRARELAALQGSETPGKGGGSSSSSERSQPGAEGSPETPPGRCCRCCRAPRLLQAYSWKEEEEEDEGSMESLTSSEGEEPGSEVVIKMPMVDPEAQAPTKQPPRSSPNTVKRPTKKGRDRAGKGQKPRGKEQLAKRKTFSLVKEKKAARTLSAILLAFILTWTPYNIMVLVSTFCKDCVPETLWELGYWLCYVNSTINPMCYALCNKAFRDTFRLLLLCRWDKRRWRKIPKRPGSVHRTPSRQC
Kind of assay: muscarinic FLIPR assay: intracellular calcium in CHOnfat/hM1 cells, potentiation of EC20 acetylcholine. In kind it is cell-based. As to the method:
The assay studies the effect of one or several concentrations of test compounds on basal or acetylcholine-stimulated Ca^2+ levels using FLIPR.
Compounds are prepared and subjected to a preincubation period of 4 min. Thereafter, a single EC20 concentration of acetylcholine is added to each well (3 nM final). The intracellular Ca^2+ level of each sample is measured and compared to an acetylcholine control to determine any modulatory activity.
Cells: CHOnfat/hM1, hM2, hM3 or hM4 cells are plated 24 hr before the assay at a density of 18,000 cells/well (100 μL) in a 384 well plate. CHOnfat/hM1 and CHOnfat/hM3 Growth Medium: 90% DMEM (Hi Glucose); 10% HI FBS; 2 mM L-glutamine; 0.1 mM NEAA; Pen-Strep; and 1 mg/ml Geneticin, are added. For M2Gqi5CHOnfat and M4Gqi5CHOnfat cells, an additional 600 ug/ml hygromycin is added.
Equipment: 384 well plate, 120 μL addition plate; 96-well Whatman 2 ml Uniplate Incubator, 37° C., 5% CO2; Skatron EMBLA-384 Plate Washer; Multimek Pipetting System; Genesis Freedom 200 System; Mosquito System; Temo Nanoliter Pipetting System; and FLIPR^384 Fluorometric Imaging Plate Reader System are used.
Buffers. Assay Buffer: Hanks Balanced Salt Solution, with 20 mM Hepes, 2.5 mM Probenecid (Sigma P-8761) first dissolved in 1N NaOH, 1% Bovine Serum Albumin (Sigma A-9647). Dye Loading Buffer: Assay Buffer plus 1% Fetal Bovine Serum and Fluo-4AM/Pluronic Acid Mixture. 2 mM Fluo-4AM ester stock in DMSO (Molecular Probes F-14202) Concentration of 2 uM in buffer for a final concentration of 1 μM in Assay. 20% Pluronic Acid Solution stock, with concentration of 0.04% in Buffer, 0.02% in Assay.
65 μL of 2 mM Fluo-4AM are mixed with 130 μL of 20% Pluronic Acid. The resulting solution and 650 μL FBS is added to the assay buffer for a total volume of 65 mL. Positive Controls: 4-Br-A23187: 10 mM in DMSO; final concentration 10 μM. Acetylcholine: 10 mM in water, working stock at both 20 uM and 30 uM in assay buffer, final concentration of 10 μM. This is used to check the maximum stimulation of the CHOK1/hM1 cells. 20 uM (2×) acetylcholine is added in the preincubation part of the assay, and the 30 uM (3×) stock is added in the second part. (EC20)Acetylcholine: 10 mM in water, working stock of 9 nM (3×), and final concentration in assay is 3 nM. This is used after the preincubation with test compounds. Addition of the EC20) Acetylcholine to each well with a test compound will ascertain any modulator activity. 24 wells contain 3 nM Acetylcholine alone as a control.
Determining Activity of Putative Compounds:
Screening Plate Compounds are titrated in 96-well plates (columns 2-11), 100% DMSO, started at a concentration of 15 mM (150× stock concentration), and 3-fold serial dilutions using Genesis Freedom200 System. Four 96-well plates are combined into a 384-well plate using Mosquito Nanoliter Pipetting System by transferring 1 ul of serial diluted compounds to each well, and 1 mM acetylcholine (100× stock concentration) were added as a control. Using Temo, 49 μl assay buffer is added to each well of the 384-well plate right before assay.
In a 96-well Whatman 2 ml Uniplate, 9 nM Acetylcholine (3×) is pipetted into wells corresponding to the screening compounds, and into control wells. The 30 uM acetylcholine control (3×) is added into control wells, and the 3× agonist plate is transferred into a 384 well plate.
Cells are washed three times with 100 μL of buffer, leaving 30 μL of buffer in each well. Using Multimek, 30 μL of Dye Loading Buffer is added into each well and incubated at […], 5% CO2 for up to one hr.
After 60 min, the cells are washed three times with 100 μL of buffer, leaving 30 μL of buffer in each well. The cell plate, screening plate, and agonist addition plates are placed on the platform in the FLIPR and the door closed. A signal test to check background fluorescence and basal fluorescence signal is performed. Laser intensity is adjusted if necessary. […]
(A change in cytosolic calcium serves as a functional read-out for many receptors and channels.)

Setting [1] is: CHOnfat/hM1 cells, FLIPR, 4 min preincubation, then EC20 acetylcholine (3 nM final), read-out: IP Value (inflection point).

Where two headings read alike, the source gives them in different places.

Consider `N#CC1(c2cccc(F)c2)CCN(Cc2cc(C(=O)O)c(=O)n3ccccc23)CC1` [Example 46, 1-{[4-cyano-4-(3-fluorophenyl)piperidin-1-yl]methyl}-4-oxo-4H-quinolizine-3-carboxylic acid], for which the EC50 was determined as 562 nM.
The same measure, in the same setting: next, `N#CC1(c2cccnc2)CCN(Cc2cc(C(=O)O)c(=O)n3ccccc23)CC1` [Example 47, 1-[(4-cyano-4-pyridin-3-ylpiperidin-1-yl)methyl]-4-oxo-4H-quinolizine-3-carboxylic acid]: 363 nM.
As to `N#CC1(c2cnc3ccccc3n2)CCN(Cc2cc(C(=O)O)c(=O)n3ccccc23)CC1` [Example 42], under setting [1], the EC50 is 1240 nM.
On to `N#CC1(c2ncccc2Br)CCN(Cc2cc(C(=O)O)c(=O)n3ccccc23)CC1` [Example 48, 1-{[4-(3-bromopyridin-2-yl)-4-cyanopiperidin-1-yl]methyl}-4-oxo-4H-quinolizine-3-carboxylic acid], for which the EC50 under setting [1] came to 3400 nM.
For `N#CC1(c2nc3ccccc3s2)CCN(Cc2cc(C(=O)O)c(=O)n3ccccc23)CC1` [Example 45], the EC50 was 91 nM.
Same read-out and setting: then `COc1ccccc1C1(C#N)CCN(Cc2cc(C(=O)O)c(=O)n3ccccc23)CC1` [Example 10], with 164 nM.
With `C=Cc1ccc(C2(C#N)CCN(Cc3cc(C(=O)O)c(=O)n4ccccc34)CC2)nc1` [Example 50, 1-{[4-cyano-4-(5-vinylpyridin-2-yl)piperidine-1-yl]methyl}-4-oxo-4H-quinolizine-3-carboxylic acid], the EC50 under setting [1] is 403 nM.
For the compound `N#CC1(c2cccc(Cl)n2)CCN(Cc2cc(C(=O)O)c(=O)n3ccccc23)CC1` [Example 28], the EC50 amounted to 133 nM.
Regarding `C=Cc1cccnc1C1(C#N)CCN(Cc2cc(C(=O)O)c(=O)n3ccccc23)CC1` [Example 49, 1-{[4-cyano-4-(3-vinylpyridin-2-yl)piperidin-1-yl]methyl}-4-oxo-4H-quinolizine-3-carboxylic acid], the EC50 under setting [1] was determined as 6300 nM.
`Cc1cccc(C2(C#N)CCN(Cc3cc(C(=O)O)c(=O)n4ccccc34)CC2)c1` [Example 8]: the EC50 is 87 nM.
Regarding `N#CC1(c2ccccc2)CCN(Cc2cc(C(=O)O)c(=O)n3ccccc23)CC1` [Example 3], the EC50 is 152 nM.
